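Briefly, cells in 96-well plates were exposed to five compound concentrations for 48 h, and endpoints were estimated by linear interpolation. At the GI50, growth is halved.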 Calls of active or inactive are those of the source. Rule as the data show it: active = GI50 up to about 1.1 µM and inactive = higher.
Tests used:
Test in all cases: NCI tumour cell line growth inhibition, 48 h
[1] = test system: HOP-92
[2] = test system: UO-31
[3] = test system: MCF7
[4] = test system: NCI-H23
[5] = test system: UACC-62
[6] = test system: A549
[7] = test system: HT-29
[8] = test system: SK-MEL-28
[9] = test system: IGROV-1
[10] = test system: CCRF-CEM
[11] = test system: RPMI-8226
[12] = test system: T47D
[13] = test system: PC-3
[14] = test system: HCT-116
[15] = test system: OVCAR-3
[16] = test system: OVCAR-8
[17] = test system: TK-10
[18] = test system: UACC-257
[19] = test system: K562
[20] = test system: SK-MEL-2

Row | SMILES | GI50 [1] | GI50 [2] | GI50 [3] | GI50 [4] | GI50 [5] | GI50 [6] | GI50 [7] | GI50 [8] | GI50 [9] | GI50 [10] | GI50 [11] | GI50 [12] | GI50 [13] | GI50 [14] | GI50 [15] | GI50 [16] | GI50 [17] | GI50 [18] | GI50 [19] | GI50 [20]
1 | C[C@]12CC[C@H](O)C[C@@H]1CC[C@@H]1[C@@H]2CC[C@]2(C)[C@@H](c3cc(C(F)(F)F)[nH]n3)CC[C@@H]12 | 2.74 µM (inactive) | 1.51 µM (inactive) | 5.75 µM (inactive) | 7.11 µM (inactive) | 14.1 µM (inactive) | 4.8 µM (inactive) | 4.27 µM (inactive) | 13.1 µM (inactive) | 6.32 µM (inactive) | 0.957 µM (active) | 3.96 µM (inactive) | 5.26 µM (inactive) | 6.38 µM (inactive) | 3.35 µM (inactive) | 10.1 µM (inactive) | 5.35 µM (inactive) | 6.07 µM (inactive) | 5.69 µM (inactive) | 3.25 µM (inactive) | 16.2 µM (inactive)
2 | COC(=O)C1=C(C)NC(C)=C(C(=O)OC)C1c1ccc(/[N+]([O-])=C/c2ccccc2)cc1 | 20.8 µM (inactive) | 37.1 µM (inactive) | 16.7 µM (inactive) | 42.5 µM (inactive) | 37.6 µM (inactive) | 96.6 µM (inactive) | 48.9 µM (inactive) | 18.7 µM (inactive) | > 100 µM (inactive) | 17 µM (inactive) | 66.1 µM (inactive) | 19.8 µM (inactive) | 64.1 µM (inactive) | 16.4 µM (inactive) | 18.9 µM (inactive) | 19.7 µM (inactive) | 92.9 µM (inactive) | 29.6 µM (inactive) | 23.6 µM (inactive) | > 100 µM (inactive)
3 | CCOC(=O)C(=O)NNc1nc2c(s1)C(=O)c1ccccc1C2=O | 10.5 µM (inactive) | 2.29 µM (inactive) | 15.6 µM (inactive) | 2.24 µM (inactive) | 4.94 µM (inactive) | 6.07 µM (inactive) | 19.1 µM (inactive) | 3.06 µM (inactive) | 5.56 µM (inactive) | 2.34 µM (inactive) | 2.65 µM (inactive) | 17.8 µM (inactive) | 12 µM (inactive) | 2.68 µM (inactive) | 1.88 µM (inactive) | 1.97 µM (inactive) | 24.5 µM (inactive) | 1.71 µM (inactive) | 2.3 µM (inactive) | 3.95 µM (inactive)
4 | COc1ccccc1/C=C1\Sc2scc(-c3ccc(O)c(O)c3)[n+]2C1=O | 19.7 µM (inactive) | 18.7 µM (inactive) | 25.5 µM (inactive) | 26.6 µM (inactive) | 16.7 µM (inactive) | 45.8 µM (inactive) | 21.4 µM (inactive) | 18.2 µM (inactive) | 15.9 µM (inactive) | 2.57 µM (inactive) | 13.8 µM (inactive) | 16.3 µM (inactive) | 28.2 µM (inactive) | 16.8 µM (inactive) | 16.6 µM (inactive) | 39.9 µM (inactive) | 28.5 µM (inactive) | 26.3 µM (inactive) | 9.51 µM (inactive) | 17.2 µM (inactive)
5 | COC(=NCCC1=CCCCC1)OC | 31.6 µM (inactive) | 53 µM (inactive) | 47.6 µM (inactive) | 58.6 µM (inactive) | > 100 µM (inactive) | 69.3 µM (inactive) | 18.2 µM (inactive) | 44.7 µM (inactive) | 32.8 µM (inactive) | 8.71 µM (inactive) | 32.1 µM (inactive) | 32.9 µM (inactive) | 85.7 µM (inactive) | 32.8 µM (inactive) | > 100 µM (inactive) | 75.7 µM (inactive) | > 100 µM (inactive) | 39.3 µM (inactive) | 36 µM (inactive) | 87.7 µM (inactive)
6 | CC(C)C[C@H](NC(=O)[C@H](Cc1ccc(F)cc1)NC(=O)c1ccccn1)B(O)O | < 0.01 µM (active) | < 0.01 µM (active) | < 0.01 µM (active) | < 0.01 µM (active) | < 0.01 µM (active) | < 0.01 µM (active) | < 0.01 µM (active) | < 0.01 µM (active) | < 0.01 µM (active) | < 0.01 µM (active) | < 0.01 µM (active) | < 0.01 µM (active) | < 0.01 µM (active) | < 0.01 µM (active) | < 0.01 µM (active) | < 0.01 µM (active) | < 0.01 µM (active) | < 0.01 µM (active) | < 0.01 µM (active) | < 0.01 µM (active)
7 | O=C1C2CC=CCC2C(=O)N1n1c(Cc2ccc(Cl)cc2)n[nH]c1=O (stereo not given) | > 100 µM (inactive) | > 100 µM (inactive) | > 100 µM (inactive) | > 100 µM (inactive) | > 100 µM (inactive) | > 100 µM (inactive) | > 100 µM (inactive) | > 100 µM (inactive) | > 100 µM (inactive) | > 100 µM (inactive) | > 100 µM (inactive) | > 100 µM (inactive) | > 100 µM (inactive) | > 100 µM (inactive) | > 100 µM (inactive) | > 100 µM (inactive) | > 100 µM (inactive) | > 100 µM (inactive) | > 100 µM (inactive) | > 100 µM (inactive)

Reference: ChEMBL document CHEMBL1201862, “PubChem BioAssay data set” (2004)
